Consider 25 compounds from patent US7429579B2, “Tetrahydrobenzazepine derivatives useful as modulators of dopamine D3 receptors (antipsychotic agents)” (SmithKline Beecham, PLC, priority 2000, dated 2008).

Each structure is given as a SMILES string. Structures can show the parent of a compound that is named as a salt.

For the test, the target named is T1, dopamine D3 receptor (Homo sapiens, UniProt P35462).
T1 construct: expressed in transfected cells; host or cells: CHO cells (crude cell membranes)
T1 sequence (P35462 whole entry): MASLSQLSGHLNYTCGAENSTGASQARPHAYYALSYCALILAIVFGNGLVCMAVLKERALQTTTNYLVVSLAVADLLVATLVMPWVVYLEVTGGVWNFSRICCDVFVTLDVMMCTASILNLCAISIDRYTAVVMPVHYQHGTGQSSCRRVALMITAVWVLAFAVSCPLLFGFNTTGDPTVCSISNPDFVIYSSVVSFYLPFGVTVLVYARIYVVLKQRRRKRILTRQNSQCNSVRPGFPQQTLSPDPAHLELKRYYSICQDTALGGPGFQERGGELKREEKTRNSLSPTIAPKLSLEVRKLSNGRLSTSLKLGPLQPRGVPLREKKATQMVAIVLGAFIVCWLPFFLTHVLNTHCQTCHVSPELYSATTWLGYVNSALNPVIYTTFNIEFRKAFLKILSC
Briefly: Binding experiments on cloned dopamine receptors: displacement of [125I]-Iodosulpride. The conditions noted are these: cloned human D3 receptor expressed in CHO cells, [125I]-Iodosulpride displacement; pKi accurate to about ±0.2-0.3. On the procedure:
Binding Experiments on Cloned Dopamine (e.g. D2, D3 and D4) Receptors
Cultures were grown as monolayers or in suspension in standard cell culture media. Cells were recovered by scraping (from monolayers) or by centrifugation (from suspension cultures), and were washed two or three times by suspension in phosphate buffered saline followed by collection by centrifugation. Cell pellets were stored frozen at −80° C. Crude cell membranes were prepared by homogenisation followed by high-speed centrifugation, and characterisation of cloned receptors achieved by radioligand binding.
Preparation of Cho Cell Membranes: Cell Pellets were Gently Thawed at Room temperature, and resuspended in about 20 volumes of ice-cold Extraction buffer; 5 mM EDTA, 50 mM Trizma pre-set crystals (pH7.4@37° C.), 1 mM MgCl2, 5 mM KCl and 120 mM NaCl. The suspension was homogenised using an Ultra-Turrax at full speed for 15 seconds. The homogenate was centrifuged at 18,000 r.p.m for 15 min at 4° C. in a Sorvall RC5C centrifuge. Supernatant was discarded, and homogenate re-suspended in extraction buffer then centrifugation was repeated. The final pellet was resuspended in 50 mM Trizma pre-set crystals (pH 7.4 @ 37° C.) and stored in 1 ml aliquot tubes at −80° C. (D2=3.0E+08 cells, D3=7.0E+07 cells and D4=1.0E+08 cells).
The total volume is 0.2 ml and incubated in a water bath at 37° C. for 40 minutes. Following incubation, samples were filtered onto GF/B Unifilters using a Can berra Packard Filtermate, and washed four times with ice-cold 50 mM Trizma pre-set crystals (pH 7.4 @ 37° C.). The radioactivity on the filters was measured using a Canberra Packard Topcount Scintillation counter. […] For competition curves, 10 serial log concentrations of competing cold drug were used (Dilution range: 10 μM-10 pM). Competition curves were analysed using Inflexion, an iterative curve fitting programme in Excel. Results were expressed as pKi values where pKi=−log 10 [Ki].
Take `Cc1cc(-c2ccc3c(c2)CCN(CCCCSc2nnc(-c4ccc5ncccc5c4)n2C)CC3)no1` [Example 176, 7-(5-Methyl-3-isoxazolyl)-3-(4-{[4-methyl-5-(6-quinolinyl)-4H-1,2,4-triazol-3-yl]thio}butyl)-2,3,4,5-tetrahydro-1H-3-benzazepine]: the Ki (in general, a measure of affinity in units of concentration, obtained from inhibition or displacement) was 0.316 to 10 nM.
In the case of `Cc1cnc(-c2ccc3c(c2)CCN(CCCSc2nnc(-c4ccc5ncccc5c4)n2C)CC3)o1` [Example 61, 7-(5-methyl-1,3-oxazol-2-yl)-3-(3-{[4-methyl-5-(6-quinolinyl)-4H-1,2,4-triazol-3-yl]thio}propyl)-2,3,4,5-tetrahydro-1H-3-benzazepine], the Ki is 0.316 to 10 nM.
Regarding `CCS(=O)(=O)c1ccc2c(c1)CCN(CCCSc1nnc(-c3cc4ccccc4o3)n1C)CC2` [Example 95, 3-(3-{[5-(1-benzofuran-2-yl)-4-methyl-4H-1,2,4-triazol-3-yl]thio}propyl)-7-(ethylsulfonyl)-2,3,4,5-tetrahydro-1H-3-benzazepine], the Ki was 0.316 to 10 nM.
Regarding `Cc1ccc2cc(-c3nnc(CCCCN4CCc5ccc(-c6cc(C)on6)cc5CC4)n3C)ccc2n1` [Example 173, 7-(5-Methyl-3-isoxazolyl)-3-{4-[4-methyl-5-(2-methyl-6-quinolinyl)-4H-1,2,4-triazol-3-yl]butyl}-2,3,4,5-tetrahydro-1H-3-benzazepine hydrochloride], the Ki was 0.316 to 10 nM.
As to `Cn1c(SCCCN2CCc3ccc(S(=O)(=O)c4ccccc4)cc3CC2)nnc1-c1ccc(F)cc1F` [Example 67, 3-(3-{[5-(2,4-difluorophenyl)-4-methyl-4H-1,2,4-triazol-3-yl]thio}propyl)-7-(phenylsulfonyl)-2,3,4,5-tetrahydro-1H-3-benzazepine], the Ki is 0.316 to 10 nM.
The compound `Cn1c(SCCCN2CCc3ccc(OS(C)(=O)=O)cc3CC2)nnc1-c1ccc(F)cc1` [Example 14, 3-(3-{[5-(4-fluorophenyl)-4-methyl-4H-1,2,4-triazol-3-yl]thio}propyl)-2,3,4,5-tetrahydro-1H-3-benzazepin-7-yl methanesulfonate] gave a Ki of 0.316 to 10 nM.
The figure for `CS(=O)(=O)Oc1ccc2c(c1)CCN(CCCSc1nc(-c3ccccc3)c(-c3ccccc3)[nH]1)CC2` [Example 22, 3-{3-[(4,5-diphenyl-1H-imidazol-2-yl)thio]propyl}-2,3,4,5-tetrahydro-1H-3-benzazepin-7-yl methanesulfonate] is 0.316 to 10 nM; for `Cc1cc(-c2ccc3c(c2)CCN(CCCSc2nnc(-c4ccc5cnccc5n4)n2C)CC3)no1` [Example 146, 7-(5-methyl-3-isoxazolyl)-3-(3-{[4-methyl-5-(1,6-naphthyridin-2-yl)-4H-1,2,4-triazol-3-yl]thio}propyl)-2,3,4,5-tetrahydro-1H-3-benzazepine] it is 0.316 to 10 nM.
On to `Cn1c(SCCCN2CCc3ccc(OS(C)(=O)=O)cc3CC2)nnc1-c1ccc2ncccc2c1` [Example 13, 3-(3-{[4-methyl-5-(6-quinolinyl)-4H-1,2,4-triazol-3-yl]thio}propyl)-2,3,4,5-tetrahydro-1H-3-benzazepin-7-yl methanesulfonate], for which the Ki was 0.316 to 10 nM.
Compound `Cc1cc(-c2ccc3c(c2)CCN(CCCSc2nnc(-c4ccc(F)cc4F)n2C)CC3)no1` [Example 131, 3-(3-{[5-(2,4-difluorophenyl)-4-methyl-4H-1,2,4-triazol-3-yl]thio}propyl)-7-(5-methyl-3-isoxazolyl)-2,3,4,5-tetrahydro-1H-3-benzazepine] showed a Ki of 0.316 to 10 nM.
Next, `Cn1c(SCCCN2CCc3ccc(OS(C)(=O)=O)cc3CC2)nnc1-c1cccs1` [Example 8, 3-(3-{[4-methyl-5-(2-thienyl)-4H-1,2,4-triazol-3-yl]thio}propyl)-2,3,4,5-tetrahydro-1H-3-benzazepin-7-yl methanesulfonate]: 0.316 to 10 nM; `Cc1cc(-c2ccc3c(c2)CCN(CCCSc2nnc(-c4ccc5ncccc5c4)n2C)CC3)no1` [Example 63, 7-(5-methyl-3-isoxazolyl)-3-(3-{[4-methyl-5-(6-quinolinyl)-4H-1,2,4-triazol-3-yl]thio}propyl)-2,3,4,5-tetrahydro-1H-3-benzazepine]: 0.316 to 10 nM; `CCS(=O)(=O)c1ccc2c(c1)CCN(CCCSc1nnc(-c3cccc4occc34)n1C)CC2` [Example 96, 3-(3-{[5-(1-benzofuran-4-yl)-4-methyl-4H-1,2,4-triazol-3-yl]thio}propyl)-7-(ethylsulfonyl)-2,3,4,5-tetrahydro-1H-3-benzazepine]: 0.316 to 10 nM.
Compound `Cc1ccc2c(-c3nnc(SCCCN4CCc5ccc(-c6cc(C)on6)cc5CC4)n3C)ccc(F)c2n1` [Example 137, 3-(3-{[5-(8-fluoro-2-methyl-5-quinolinyl)-4-methyl-4H-1,2,4-triazol-3-yl]thio}propyl)-7-(5-methyl-3-isoxazolyl)-2,3,4,5-tetrahydro-1H-3-benzazepine] had a Ki of 0.316 to 10 nM.
For `Cc1cc(-c2ccc3c(c2)CCN(CCCSc2nnc(-c4ccc5ncccc5c4)n2C)CC3)on1` [Example 126, 7-(3-methyl-5-isoxazolyl)-3-(3-{[4-methyl-5-(6-quinolinyl)-4H-1,2,4-triazol-3-yl]thio}propyl)-2,3,4,5-tetrahydro-1H-3-benzazepine], the Ki was 0.316 to 10 nM.
The compound `Cc1cc(-c2ccc3c(c2)CCN(CCCSc2nnc(-c4ccc(F)c5ncccc45)n2C)CC3)no1` [Example 135, 3-(3-{[5-(8-fluoro-5-quinolinyl)-4-methyl-4H-1,2,4-triazol-3-yl]thio}propyl)-7-(5-methyl-3-isoxazolyl)-2,3,4,5-tetrahydro-1H-3-benzazepine] gave an inhibition constant Ki of 0.316 to 10 nM.
As to `Cn1c(SCCCN2CCc3ccc(S(C)(=O)=O)cc3CC2)nnc1-c1cc2ccccc2[nH]1` [Example 72, 3-(3-{[5-(1H-indol-2-yl)-4-methyl-4H-1,2,4-triazol-3-yl]thio}propyl)-7-(methylsulfonyl)-2,3,4,5-tetrahydro-1H-3-benzazepine], the Ki is 0.316 to 10 nM.
`Cn1c(SCCCN2CCc3ccc(S(=O)(=O)N4CCOCC4)cc3CC2)nnc1-c1ccc(F)cc1F` [Example 70, 3-(3-{[5-(2,4-difluorophenyl)-4-methyl-4H-1,2,4-triazol-3-yl]thio}propyl)-7-(4-morpholinylsulfonyl)-2,3,4,5-tetrahydro-1H-3-benzazepine] had a Ki of 0.316 to 10 nM.
The compound `Cc1ccc2cc(-c3nnc(SCCCN4CCc5ccc(-c6ncc(C)o6)cc5CC4)n3C)ccc2n1` [Example 168, 3-(3-{[4-methyl-5-(2-methyl-6-quinolinyl)-4H-1,2,4-triazol-3-yl]thio}propyl)-7-(5-methyl-1,3-oxazol-2-yl)-2,3,4,5-tetrahydro-1H-3-benzazepine] gave a Ki of 0.316 to 10 nM.
Compound `CCS(=O)(=O)c1ccc2c(c1)CCN(CCCSc1nnc(-c3cccc4ccoc34)n1C)CC2` [Example 100, 3-(3-{[5-(1-benzofuran-7-yl)-4-methyl-4H-1,2,4-triazol-3-yl]thio}propyl)-7-(ethylsulfonyl)-2,3,4,5-tetrahydro-1H-3-benzazepine] had a Ki of 0.316 to 10 nM.
Compound `CS(=O)(=O)c1ccc2c(c1)CCN(CCCSc1nc(-c3ccccc3)c(-c3ccccc3)[nH]1)CC2` [Example 5, 3-{3-[(4,5-diphenyl-1H-imidazol-2-yl)thio]propyl}-7-(methylsulfonyl)-2,3,4,5-tetrahydro-1H-3-benzazepine] showed a Ki of 0.316 to 10 nM.
As to `CCS(=O)(=O)c1ccc2c(c1)CCN(CCCSc1nnc(-c3cc4ccccc4s3)n1C)CC2` [Example 91, 3-(3-{[5-(1-benzothien-2-yl)-4-methyl-4H-1,2,4-triazol-3-yl]thio}propyl)-7-(ethylsulfonyl)-2,3,4,5-tetrahydro-1H-3-benzazepine], the Ki was 0.316 to 10 nM.
Regarding `Cn1c(SCCCN2CCc3ccc(S(=O)(=O)N4CCOCC4)cc3CC2)nnc1-c1ccc2ncccc2c1` [Example 51, 3-(3-{[4-methyl-5-(6-quinolinyl)-4H-1,2,4-triazol-3-yl]thio}propyl)-7-(4-morpholinylsulfonyl)-2,3,4,5-tetrahydro-1H-3-benzazepine], the Ki was 0.316 to 10 nM.
Next, `CCn1c(SCCCN2CCc3ccc(-c4ncc(C)o4)cc3CC2)nnc1-c1ccc2ncccc2c1` [Example 169, 3-(3-{[4-ethyl-5-(6-quinolinyl)-4H-1,2,4-triazol-3-yl]thio}propyl)-7-(5-methyl-1,3-oxazol-2-yl)-2,3,4,5-tetrahydro-1H-3-benzazepine]: 0.316 to 10 nM; `Cn1c(SCCCN2CCc3ccc(OS(C)(=O)=O)cc3CC2)nnc1-c1ccccc1` [Example 1, 3-{3-[(4-methyl-5-phenyl-4H-1,2,4-triazol-3-yl)thio]propyl}-2,3,4,5-tetrahydro-1H-3-benzazepin-7-yl methanesulfonate]: 0.316 to 10 nM.
